Experimental findings from the supplement of paper PMC11208160 are described below.

The nature of this data set: recombinant UMI read abundance after kanamycin selection (control-corrected) (log10(CPM+1)); higher = more efficient recombination; extreme values may be limits of the assay; sequences stand for … in AGTGCAGAGAAAATCGGCCAGTTTTCTCTGCCTGCAGTCCGCATGCCGTGGGACCCCTTGGGTTCTAACCTGTTGCCTAGATTTATGCAGCGGACTGCCTTTCTCCCAAAGTGATAAACCGG…AGGTTGGTTTCACT; site = the 11-nt donor. Here is the method:
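Pooled E. coli donor-specificity screen for the IS621 bridge recombinase. Each library member carries a reprogrammed 11-nt donor and a full-length LE bridge RNA expressed in cis from the natural promoter, with a paired donor-binding loop (8-nt LDG + 4-nt RDG) and a target-binding loop fixed to T5. It is co-electroporated with a T5 target plasmid; recombinase is induced with 0.07 mM IPTG and recombinants are selected on kanamycin. UMIs are counted as CPM, averaged over two biological replicates and corrected by the unselected control. Molecule = full bridge RNA written as DNA, built from the T5 scaffold: LDG = donor specificity nt 1-8, RDG = reverse complement of nt 8-11.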
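Further: IS621 bridge recombinase in Escherichia coli cells against a fixed T5 target plasmid.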

On to “ACATCTGCATGGACCGGTTTTCCCGGTAATCCGTATTTGTG (site ACATCTGCTCA)”, for which the “recombinant UMI read abundance (log10)” value was 1.37.

Take “ACATCTGCATGGACCGGTTTTCCCGGTAATCCGTATTTGTG (site ACATCTTCTCA)”: the “recombinant UMI read abundance (log10)” value was 0.5.

For the sequence “ACATGAACATGGACCGGTTTTCCCGGTAATCCGTATTTGAG (site ACATGAACTCT)”, the “recombinant UMI read abundance (log10)” value came to 2.07.

Consider “ACATGAACATGGACCGGTTTTCCCGGTAATCCGTATTTGTC (site ACAAGAACTGA)”, for which the “recombinant UMI read abundance (log10)” value came out at 0.

Take “ACATGAACATGGACCGGTTTTCCCGGTAATCCGTATTTGTC (site ACACGAACTGA)”: the “recombinant UMI read abundance (log10)” value was determined as 0.197.

As for “ACATGAACATGGACCGGTTTTCCCGGTAATCCGTATTTGTC (site ACAGGAACTGA)”, the “recombinant UMI read abundance (log10)” value was found to be 0.

As for “ACATGAACATGGACCGGTTTTCCCGGTAATCCGTATTTGTC (site ACATGAACTGA)”, the “recombinant UMI read abundance (log10)” value was found to be 1.57.

With “ACATGACCATGGACCGGTTTTCCCGGTAATCCGTATTTGCC (site ACATGACCTGG)”, the “recombinant UMI read abundance (log10)” value was 0.

On to “ACATGCGCATGGACCGGTTTTCCCGGTAATCCGTATTTGCA (site ACATGCGCTTG)”, for which the “recombinant UMI read abundance (log10)” value was determined as 2.86.

Take “ACATGTACATGGACCGGTTTTCCCGGTAATCCGTATTTGGT (site ACATGTACTAC)”: the “recombinant UMI read abundance (log10)” value stood at 1.73.

For the sequence “ACATTCTCATGGACCGGTTTTCCCGGTAATCCGTATTTGCC (site ACATTCTCTGG)”, the “recombinant UMI read abundance (log10)” value came to 1.63.

Turning to “ACATTGACATGGACCGGTTTTCCCGGTAATCCGTATTTGAA (site ACATTGACTTT)”, the “recombinant UMI read abundance (log10)” value came to 1.76.

Turning to “ACATTTACATGGACCGGTTTTCCCGGTAATCCGTATTTGTG (site ACATATACTCA)”, the “recombinant UMI read abundance (log10)” value was found to be 0.00866.

Take “ACATTTACATGGACCGGTTTTCCCGGTAATCCGTATTTGTG (site ACATCTACTCA)”: the “recombinant UMI read abundance (log10)” value is 0.162.

As to “ACATTTACATGGACCGGTTTTCCCGGTAATCCGTATTTGTG (site ACATGTACTCA)”, the “recombinant UMI read abundance (log10)” value was found to be 0.287.

Take “ACATTTACATGGACCGGTTTTCCCGGTAATCCGTATTTGTG (site ACATTTACTCA)”: the “recombinant UMI read abundance (log10)” value worked out at 0.706.

On to “ACCAACTCATGGACCGGTTTTCCCGGTAATCCGTATTTGCC (site ACCAACTCTGG)”, for which the “recombinant UMI read abundance (log10)” value came out at 1.81.

In the case of “ACCACGCCATGGACCGGTTTTCCCGGTAATCCGTATTTGTA (site ACCACGCCTTA)”, the “recombinant UMI read abundance (log10)” value stood at 0.0245.

As for “ACCACGCCATGGACCGGTTTTCCCGGTAATCCGTATTTGTA (site CCCACGCCTTA)”, the “recombinant UMI read abundance (log10)” value stood at 0.143.

Consider “ACCACGCCATGGACCGGTTTTCCCGGTAATCCGTATTTGTA (site GCCACGCCTTA)”, for which the “recombinant UMI read abundance (log10)” value was found to be 0.00875.

For “ACCACGCCATGGACCGGTTTTCCCGGTAATCCGTATTTGTA (site TCCACGCCTTA)”, the “recombinant UMI read abundance (log10)” value was determined as 0.0133.

In the case of “ACCAGCTCATGGACCGGTTTTCCCGGTAATCCGTATTTGCT (site ACCAGCTCTAG)”, the “recombinant UMI read abundance (log10)” value was 2.25.

For “ACCAGGTCATGGACCGGTTTTCCCGGTAATCCGTATTTGTA (site ACCAGGTCTTA)”, the “recombinant UMI read abundance (log10)” value is 2.54.

Take “ACCATATCATGGACCGGTTTTCCCGGTAATCCGTATTTGCA (site ACAGTATCTTG)”: the “recombinant UMI read abundance (log10)” value stood at 0.937.

For “ACCATATCATGGACCGGTTTTCCCGGTAATCCGTATTTGCA (site ACCATATCTTG)”, the “recombinant UMI read abundance (log10)” value turned out to be 2.3.

Regarding “ACCCATCCATGGACCGGTTTTCCCGGTAATCCGTATTTGAC (site ACACATCCTGT)”, the “recombinant UMI read abundance (log10)” value was determined as 0.0114.

Consider “ACCCATCCATGGACCGGTTTTCCCGGTAATCCGTATTTGAC (site ACCCATCCTGT)”, for which the “recombinant UMI read abundance (log10)” value stood at 0.806.

In the case of “ACCCATCCATGGACCGGTTTTCCCGGTAATCCGTATTTGAC (site ACGCATCCTGT)”, the “recombinant UMI read abundance (log10)” value was determined as 0.

For “ACCCATCCATGGACCGGTTTTCCCGGTAATCCGTATTTGAC (site ACTCATCCTGT)”, the “recombinant UMI read abundance (log10)” value came out at 0.

Consider “ACCCCAACATGGACCGGTTTTCCCGGTAATCCGTATTTGTA (site ACCCCAACTTA)”, for which the “recombinant UMI read abundance (log10)” value was determined as 1.68.

“ACCCGATCATGGACCGGTTTTCCCGGTAATCCGTATTTGAT (site ACCCGATCTAT)”: the “recombinant UMI read abundance (log10)” value is 1.53.

With “ACCCGCTCATGGACCGGTTTTCCCGGTAATCCGTATTTGTC (site ACCCGCTCTGA)”, the “recombinant UMI read abundance (log10)” value turned out to be 2.76.

Regarding “ACCCGGGCATGGACCGGTTTTCCCGGTAATCCGTATTTGAC (site ACCCGGGCTGT)”, the “recombinant UMI read abundance (log10)” value was 2.02.

On to “ACCGAACCATGGACCGGTTTTCCCGGTAATCCGTATTTGGA (site ACCGAACCTTC)”, for which the “recombinant UMI read abundance (log10)” value was 0.00378.

For the sequence “ACCGAATCATGGACCGGTTTTCCCGGTAATCCGTATTTGCA (site ACAGTATCTTG)”, the “recombinant UMI read abundance (log10)” value was found to be 0.

On to “ACCGAATCATGGACCGGTTTTCCCGGTAATCCGTATTTGCA (site ACCGAATCTTG)”, for which the “recombinant UMI read abundance (log10)” value is 2.16.

Take “ACCGACGCATGGACCGGTTTTCCCGGTAATCCGTATTTGTT (site ACCGACGCTAA)”: the “recombinant UMI read abundance (log10)” value came out at 0.786.

“ACCGACTCATGGACCGGTTTTCCCGGTAATCCGTATTTGCC (site ACCGACTCTGG)”: the “recombinant UMI read abundance (log10)” value worked out at 1.78.

With “ACCGATCCATGGACCGGTTTTCCCGGTAATCCGTATTTGCA (site ACCGATCCTTG)”, the “recombinant UMI read abundance (log10)” value was determined as 0.164.

For “ACCGCTACATGGACCGGTTTTCCCGGTAATCCGTATTTGCG (site ACCGCTACTCG)”, the “recombinant UMI read abundance (log10)” value was 1.01.

For the sequence “ACCGCTGCATGGACCGGTTTTCCCGGTAATCCGTATTTGGC (site ACCGCTGCTGC)”, the “recombinant UMI read abundance (log10)” value was 2.08.

For the sequence “ACCGGAACATGGACCGGTTTTCCCGGTAATCCGTATTTGTG (site ACCGGAACTCA)”, the “recombinant UMI read abundance (log10)” value is 1.41.

In the case of “ACCGGGACATGGACCGGTTTTCCCGGTAATCCGTATTTGAG (site ACCGGGACTCT)”, the “recombinant UMI read abundance (log10)” value amounted to 1.23.

“ACCGGTCCATGGACCGGTTTTCCCGGTAATCCGTATTTGCC (site ACCGGTCCTGG)”: the “recombinant UMI read abundance (log10)” value was found to be 0.

In the case of “ACCGGTGCATGGACCGGTTTTCCCGGTAATCCGTATTTGAG (site ACCGGTGCTCT)”, the “recombinant UMI read abundance (log10)” value came out at 1.35.

As for “ACCGTATCATGGACCGGTTTTCCCGGTAATCCGTATTTGCT (site ACAGTATCTTG)”, the “recombinant UMI read abundance (log10)” value was found to be 0.

As to “ACCGTATCATGGACCGGTTTTCCCGGTAATCCGTATTTGCT (site ACCGTATCTAG)”, the “recombinant UMI read abundance (log10)” value came to 2.39.

On to “ACCGTATCATGGACCGGTTTTCCCGGTAATCCGTATTTGGT (site ACCGTATCTAC)”, for which the “recombinant UMI read abundance (log10)” value is 1.32.

Consider “ACCTAAGCATGGACCGGTTTTCCCGGTAATCCGTATTTGGC (site ACCTAAGCTGC)”, for which the “recombinant UMI read abundance (log10)” value turned out to be 2.22.

Regarding “ACCTACCCATGGACCGGTTTTCCCGGTAATCCGTATTTGAC (site ACCTACCCTGT)”, the “recombinant UMI read abundance (log10)” value stood at 0.183.

Consider “ACCTGATCATGGACCGGTTTTCCCGGTAATCCGTATTTGAT (site ACCTGATCTAT)”, for which the “recombinant UMI read abundance (log10)” value was 0.427.

Take “ACCTGCCCATGGACCGGTTTTCCCGGTAATCCGTATTTGTT (site ACCTGCCCTAA)”: the “recombinant UMI read abundance (log10)” value is 0.188.

For “ACCTGGACATGGACCGGTTTTCCCGGTAATCCGTATTTGCA (site ACCTGGACTTG)”, the “recombinant UMI read abundance (log10)” value came out at 1.82.

As to “ACCTGGACATGGACCGGTTTTCCCGGTAATCCGTATTTGTG (site ACCTGGACTCA)”, the “recombinant UMI read abundance (log10)” value is 0.502.

Consider “ACCTGGGCATGGACCGGTTTTCCCGGTAATCCGTATTTGTC (site ACCTGGGCTGA)”, for which the “recombinant UMI read abundance (log10)” value was determined as 0.

With “ACCTTAGCATGGACCGGTTTTCCCGGTAATCCGTATTTGAA (site ACCTTAGCTTT)”, the “recombinant UMI read abundance (log10)” value was 0.29.

As for “ACCTTAGCATGGACCGGTTTTCCCGGTAATCCGTATTTGGT (site ACCTTAGCTAC)”, the “recombinant UMI read abundance (log10)” value was determined as 0.271.

As for “ACCTTCTCATGGACCGGTTTTCCCGGTAATCCGTATTTGGG (site ACCTTCTCTCC)”, the “recombinant UMI read abundance (log10)” value is 0.00668.

On to “ACCTTCTCATGGACCGGTTTTCCCGGTAATCCGTATTTGGG (site CCCTTCTCTCC)”, for which the “recombinant UMI read abundance (log10)” value turned out to be 0.00967.

Turning to “ACCTTCTCATGGACCGGTTTTCCCGGTAATCCGTATTTGGG (site GCCTTCTCTCC)”, the “recombinant UMI read abundance (log10)” value was 0.00741.

With “ACCTTCTCATGGACCGGTTTTCCCGGTAATCCGTATTTGGG (site TCCTTCTCTCC)”, the “recombinant UMI read abundance (log10)” value was 0.00341.

For the sequence “ACGAACTCATGGACCGGTTTTCCCGGTAATCCGTATTTGTC (site ACGAACTCTGA)”, the “recombinant UMI read abundance (log10)” value came to 2.03.

With “ACGAAGACATGGACCGGTTTTCCCGGTAATCCGTATTTGTA (site ACGAAGACTTA)”, the “recombinant UMI read abundance (log10)” value was 2.82.

For the sequence “ACGAAGACATGGACCGGTTTTCCCGGTAATCCGTATTTGTA (site AGGAAGACTTG)”, the “recombinant UMI read abundance (log10)” value came to 0.

Turning to “ACGAAGCCATGGACCGGTTTTCCCGGTAATCCGTATTTGGG (site ACGAAGCCTCC)”, the “recombinant UMI read abundance (log10)” value is 0.0169.
